Here are results for four molecules from ChEMBL document CHEMBL1201862, “PubChem BioAssay data set” (2004).

Active and inactive are the calls of the source.

Assay [1] has as its target T1, Mannose-6-phosphate isomerase (Homo sapiens, UniProt P34949).
T1 sequence (P34949 whole entry): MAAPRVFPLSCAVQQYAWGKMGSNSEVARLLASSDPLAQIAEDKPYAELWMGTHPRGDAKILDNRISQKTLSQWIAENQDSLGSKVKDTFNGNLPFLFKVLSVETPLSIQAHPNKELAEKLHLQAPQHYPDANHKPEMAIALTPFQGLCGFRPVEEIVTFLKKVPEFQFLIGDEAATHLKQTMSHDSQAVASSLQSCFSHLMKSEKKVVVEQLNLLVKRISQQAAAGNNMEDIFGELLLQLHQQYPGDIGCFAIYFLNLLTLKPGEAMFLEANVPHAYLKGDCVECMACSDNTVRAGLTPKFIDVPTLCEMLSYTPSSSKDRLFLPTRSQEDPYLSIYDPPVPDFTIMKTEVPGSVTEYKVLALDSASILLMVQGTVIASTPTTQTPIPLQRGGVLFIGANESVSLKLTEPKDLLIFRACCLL
In words: human PMI inhibitors, high substrate, primary screen, biochemical, fluorescence intensity, high mannose 6-phosphate (AID 1220).

The nature of assay [2]: cytotoxicity in HEK-293T NF-kB-Luc cells, dose response, cytotoxicity control for B/T-cell NF-kB inhibitor project, cell-based, uHTS hits (AID 489019).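 Further: IC50 reflects cytotoxicity as loss of cell viability.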 In kind it is functional.
Assay [3] addresses T2, Rac GTPase-activating protein 1 (Homo sapiens, UniProt Q9H0H5).
T2 sequence (Q9H0H5 whole entry): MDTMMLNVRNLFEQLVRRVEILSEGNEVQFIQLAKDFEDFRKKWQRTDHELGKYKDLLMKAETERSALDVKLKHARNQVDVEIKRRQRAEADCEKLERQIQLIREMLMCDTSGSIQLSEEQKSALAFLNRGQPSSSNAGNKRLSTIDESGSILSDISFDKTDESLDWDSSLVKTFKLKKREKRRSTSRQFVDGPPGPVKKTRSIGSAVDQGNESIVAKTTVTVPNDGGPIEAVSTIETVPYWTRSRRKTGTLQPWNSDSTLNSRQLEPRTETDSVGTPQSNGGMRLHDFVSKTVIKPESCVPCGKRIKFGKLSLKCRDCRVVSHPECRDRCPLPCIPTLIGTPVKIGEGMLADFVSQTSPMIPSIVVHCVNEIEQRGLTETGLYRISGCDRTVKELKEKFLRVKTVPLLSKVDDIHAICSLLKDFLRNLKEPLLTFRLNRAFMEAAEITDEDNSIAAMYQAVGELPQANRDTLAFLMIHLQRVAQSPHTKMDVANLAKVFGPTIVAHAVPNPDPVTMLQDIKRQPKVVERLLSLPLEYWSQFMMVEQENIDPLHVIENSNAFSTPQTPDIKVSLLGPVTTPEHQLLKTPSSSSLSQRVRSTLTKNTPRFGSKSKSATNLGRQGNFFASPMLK
Description: MgcRacGAP GTPase-activating activity inhibitors, confirmation, biochemical, ADP Hunter fluorescence, primary and confirmatory (AID 624330). In kind it is functional.

The nature of assay [4]: Counterscreen for AddAB inhibitors: absorbance-based bacterial cell-based high throughput dose response assay for inhibitors of bacterial viability. [Related pubchem assays (depositor defined):AID435030, AID449728, AID449731, AID488942, AID488955, AID488956]. In kind it is functional.
A further assay concerns the target Exodeoxyribonuclease V (Escherichia coli (strain K12), UniProt P04993+P07648+P08394). In words: E. coli RecBCD inhibitors, dose response, counter-screen for AddAB inhibitor project, absorbance, V66 E. coli, mutant T4 phage (AID 492957). In kind it is functional, cell-based, Escherichia coli str. K-12 substr. MG1655.
Assay [5] relates to Streptococcus sp. 'group A'. In words: growth inhibition of control SK(-) GAS strain, dose response, counter-screen for streptokinase expression inhibitor project, luminescence, kanamycin, BacTiterGlo, confirmation (AID 1900). In kind it is functional, organism-based.
The test system of the next assay is HEK293. Description: optical interference in Abeta FP readout, dose response, artefact control for IDE activator project, biochemical, fluorescence polarization (AID 588442). In kind it is functional, cell-based. The note with it: Homo sapiens.
The target in assay [6] is Casein kinase II subunit alpha (Homo sapiens, UniProt P68400). In kind it is functional.
Assay [7] concerns the target MAP kinase-activated protein kinase 5 (Homo sapiens, UniProt Q8IW41). In kind it is functional.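 Further: measured as one member of a kinome panel.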
Assay [8] addresses Casein kinase I isoform alpha (Homo sapiens, UniProt P48729). In kind it is functional.
Assay [9] has as its target Megakaryocyte-associated tyrosine-protein kinase (Homo sapiens, UniProt P42679). In kind it is functional.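 Further: affinity measured as one member of a kinase panel (Navigating the Kinome) against MATK.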
Assay [10] concerns the target Proto-oncogene tyrosine-protein kinase Src (Homo sapiens, UniProt P12931). In kind it is functional.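 Further: SRC entry within a kinome-wide kinase profiling panel.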
Assay [11] deals with Fibroblast growth factor receptor 1 (Homo sapiens, UniProt P11362). In kind it is functional.
In assay [12] the target is Receptor tyrosine-protein kinase erbB-2 (Homo sapiens, UniProt P04626). Description: Navigating the Kinome. Panel member name: ERBB2. In kind it is functional.
The next assay addresses Focal adhesion kinase 1 (Homo sapiens, UniProt Q05397). In kind it is functional.
The target of assay [13] is cGMP-dependent protein kinase 1 (Homo sapiens, UniProt Q13976). In kind it is functional.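 Further: value from a kinome panel screen with PRKG1 as the panel member.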
Assay [14] has as its target Tyrosine-protein kinase ABL1 (Homo sapiens, UniProt P00519). In kind it is functional.
The target of assay [15] is Rho-associated protein kinase 1 (Homo sapiens, UniProt Q13464). In kind it is functional.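 Further: measured within a broad kinome-wide panel profiling many kinases.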
For assay [16], the target named is Serine/threonine-protein kinase BRSK1 (Homo sapiens, UniProt Q8TDC3). In kind it is functional.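 Further: measured within a kinome-wide kinase panel, with the target listed as KIAA1811.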
Assay [17] concerns the target Vascular endothelial growth factor receptor 3 (Homo sapiens, UniProt P35916). In kind it is functional.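 Further: value from a kinome-wide profiling panel, with FLT4 as the panel member.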
Assay [18] concerns the target Receptor-type tyrosine-protein kinase FLT3 (Homo sapiens, UniProt P36888). In kind it is functional.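 Further: FLT3 was tested as one member of a kinome-wide kinase panel.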
The target of assay [19] is cAMP-dependent protein kinase catalytic subunit alpha (Homo sapiens, UniProt P17612). In kind it is functional.
Assay [20] has as its target Protein kinase C zeta type (Homo sapiens, UniProt Q05513). In kind it is functional.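 Further: measured as one member of a broad kinase profiling panel.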
Assay [21] has as its target RAC-alpha serine/threonine-protein kinase (Homo sapiens, UniProt P31749). In kind it is functional.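 Further: AKT1 affinity measured as one member of a kinome-wide kinase profiling panel.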
In assay [22] the target is Cell division cycle 7-related protein kinase (Homo sapiens, UniProt O00311). In kind it is functional.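 Further: value obtained from a kinome-wide kinase panel.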
Assay [23] deals with MAP/microtubule affinity-regulating kinase 3 (Homo sapiens, UniProt P27448). In kind it is functional.
In assay [24] the target is Proto-oncogene tyrosine-protein kinase ROS (Homo sapiens, UniProt P08922). In kind it is functional.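 Further: ROS1 tested as one member of a kinome-wide kinase panel.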

Chain of Focal adhesion kinase 1 (Q05397 whole entry): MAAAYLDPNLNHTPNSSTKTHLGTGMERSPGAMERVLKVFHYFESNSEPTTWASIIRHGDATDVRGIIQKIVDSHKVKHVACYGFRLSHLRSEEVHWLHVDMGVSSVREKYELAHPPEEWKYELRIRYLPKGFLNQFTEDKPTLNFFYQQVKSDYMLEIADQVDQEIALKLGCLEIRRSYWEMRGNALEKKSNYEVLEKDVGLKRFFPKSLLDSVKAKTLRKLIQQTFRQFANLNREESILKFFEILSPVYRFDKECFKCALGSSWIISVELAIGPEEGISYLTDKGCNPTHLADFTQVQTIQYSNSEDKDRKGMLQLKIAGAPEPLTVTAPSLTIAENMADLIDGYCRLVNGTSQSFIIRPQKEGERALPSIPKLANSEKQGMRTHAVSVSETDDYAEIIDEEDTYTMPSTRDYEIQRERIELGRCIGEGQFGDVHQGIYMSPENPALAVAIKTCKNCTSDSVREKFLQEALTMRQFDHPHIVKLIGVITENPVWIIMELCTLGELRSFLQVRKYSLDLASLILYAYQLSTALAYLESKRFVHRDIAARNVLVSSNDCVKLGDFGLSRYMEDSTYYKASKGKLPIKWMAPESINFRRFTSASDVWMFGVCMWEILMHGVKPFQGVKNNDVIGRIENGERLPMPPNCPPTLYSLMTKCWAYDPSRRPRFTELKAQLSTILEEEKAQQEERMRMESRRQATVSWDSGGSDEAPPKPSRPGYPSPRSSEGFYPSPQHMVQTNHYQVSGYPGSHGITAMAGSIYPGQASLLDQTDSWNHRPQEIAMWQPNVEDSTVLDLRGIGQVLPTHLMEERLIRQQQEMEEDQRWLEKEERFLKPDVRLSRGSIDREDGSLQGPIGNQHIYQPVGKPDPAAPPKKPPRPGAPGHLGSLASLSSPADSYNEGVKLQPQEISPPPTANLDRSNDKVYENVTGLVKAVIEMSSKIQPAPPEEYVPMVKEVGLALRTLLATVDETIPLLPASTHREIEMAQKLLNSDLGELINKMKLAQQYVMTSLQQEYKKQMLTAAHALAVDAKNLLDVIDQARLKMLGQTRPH
Chain of MAP/microtubule affinity-regulating kinase 3 (P27448 whole entry): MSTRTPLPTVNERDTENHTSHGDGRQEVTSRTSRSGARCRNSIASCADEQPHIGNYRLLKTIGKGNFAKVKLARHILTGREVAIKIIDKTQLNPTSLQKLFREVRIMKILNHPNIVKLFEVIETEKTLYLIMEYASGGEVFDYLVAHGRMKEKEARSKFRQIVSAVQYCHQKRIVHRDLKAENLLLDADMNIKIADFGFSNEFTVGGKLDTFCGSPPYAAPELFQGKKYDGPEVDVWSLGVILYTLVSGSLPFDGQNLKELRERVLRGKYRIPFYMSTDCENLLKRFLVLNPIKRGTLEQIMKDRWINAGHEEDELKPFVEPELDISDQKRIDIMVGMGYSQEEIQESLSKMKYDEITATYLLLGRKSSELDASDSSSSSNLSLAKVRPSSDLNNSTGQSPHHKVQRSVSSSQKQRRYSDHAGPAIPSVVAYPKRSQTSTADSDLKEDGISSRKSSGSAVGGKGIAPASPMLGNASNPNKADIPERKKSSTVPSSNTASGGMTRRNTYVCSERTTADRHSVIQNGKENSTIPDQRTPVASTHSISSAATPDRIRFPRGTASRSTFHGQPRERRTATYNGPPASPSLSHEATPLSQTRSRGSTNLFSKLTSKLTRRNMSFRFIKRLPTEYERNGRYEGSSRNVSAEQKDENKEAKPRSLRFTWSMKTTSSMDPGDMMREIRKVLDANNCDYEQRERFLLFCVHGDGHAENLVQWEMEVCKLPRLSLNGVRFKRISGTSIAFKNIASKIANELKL
Chain of Casein kinase II subunit alpha (P68400 whole entry): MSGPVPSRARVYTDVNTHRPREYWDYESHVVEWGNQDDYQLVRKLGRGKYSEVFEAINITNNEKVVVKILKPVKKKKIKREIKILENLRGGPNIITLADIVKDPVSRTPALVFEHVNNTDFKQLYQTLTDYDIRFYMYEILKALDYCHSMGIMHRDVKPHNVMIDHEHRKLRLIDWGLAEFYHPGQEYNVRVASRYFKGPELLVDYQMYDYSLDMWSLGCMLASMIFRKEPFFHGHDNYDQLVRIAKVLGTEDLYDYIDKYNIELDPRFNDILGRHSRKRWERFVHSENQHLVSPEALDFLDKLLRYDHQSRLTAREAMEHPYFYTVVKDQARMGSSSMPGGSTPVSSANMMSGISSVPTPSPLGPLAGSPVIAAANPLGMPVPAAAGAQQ
Chain of Cell division cycle 7-related protein kinase (O00311 whole entry): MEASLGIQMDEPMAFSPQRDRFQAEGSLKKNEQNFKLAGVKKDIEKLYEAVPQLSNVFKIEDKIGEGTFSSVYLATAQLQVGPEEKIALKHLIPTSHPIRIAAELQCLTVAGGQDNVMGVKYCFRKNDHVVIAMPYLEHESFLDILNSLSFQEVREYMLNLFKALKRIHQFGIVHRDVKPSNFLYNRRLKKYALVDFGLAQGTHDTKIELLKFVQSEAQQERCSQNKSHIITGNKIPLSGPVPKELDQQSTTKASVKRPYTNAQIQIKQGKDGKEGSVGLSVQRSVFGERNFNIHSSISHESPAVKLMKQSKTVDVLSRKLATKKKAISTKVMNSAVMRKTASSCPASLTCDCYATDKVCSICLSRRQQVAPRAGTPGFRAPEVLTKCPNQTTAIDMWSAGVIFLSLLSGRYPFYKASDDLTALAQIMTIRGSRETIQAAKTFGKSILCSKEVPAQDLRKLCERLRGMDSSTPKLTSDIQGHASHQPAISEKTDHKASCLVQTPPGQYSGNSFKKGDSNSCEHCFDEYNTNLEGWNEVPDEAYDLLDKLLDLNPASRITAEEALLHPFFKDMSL
Chain of Casein kinase I isoform alpha (P48729 whole entry, canonical isoform): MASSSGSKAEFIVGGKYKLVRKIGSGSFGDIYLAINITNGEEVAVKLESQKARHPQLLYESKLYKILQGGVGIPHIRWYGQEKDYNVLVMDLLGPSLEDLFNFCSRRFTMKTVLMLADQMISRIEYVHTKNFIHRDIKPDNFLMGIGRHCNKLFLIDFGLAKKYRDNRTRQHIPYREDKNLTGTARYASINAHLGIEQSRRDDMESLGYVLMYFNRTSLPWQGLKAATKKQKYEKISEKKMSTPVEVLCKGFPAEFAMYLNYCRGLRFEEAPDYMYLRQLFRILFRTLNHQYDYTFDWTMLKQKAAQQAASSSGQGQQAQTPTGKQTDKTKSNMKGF
Chain of cGMP-dependent protein kinase 1 (Q13976 whole entry): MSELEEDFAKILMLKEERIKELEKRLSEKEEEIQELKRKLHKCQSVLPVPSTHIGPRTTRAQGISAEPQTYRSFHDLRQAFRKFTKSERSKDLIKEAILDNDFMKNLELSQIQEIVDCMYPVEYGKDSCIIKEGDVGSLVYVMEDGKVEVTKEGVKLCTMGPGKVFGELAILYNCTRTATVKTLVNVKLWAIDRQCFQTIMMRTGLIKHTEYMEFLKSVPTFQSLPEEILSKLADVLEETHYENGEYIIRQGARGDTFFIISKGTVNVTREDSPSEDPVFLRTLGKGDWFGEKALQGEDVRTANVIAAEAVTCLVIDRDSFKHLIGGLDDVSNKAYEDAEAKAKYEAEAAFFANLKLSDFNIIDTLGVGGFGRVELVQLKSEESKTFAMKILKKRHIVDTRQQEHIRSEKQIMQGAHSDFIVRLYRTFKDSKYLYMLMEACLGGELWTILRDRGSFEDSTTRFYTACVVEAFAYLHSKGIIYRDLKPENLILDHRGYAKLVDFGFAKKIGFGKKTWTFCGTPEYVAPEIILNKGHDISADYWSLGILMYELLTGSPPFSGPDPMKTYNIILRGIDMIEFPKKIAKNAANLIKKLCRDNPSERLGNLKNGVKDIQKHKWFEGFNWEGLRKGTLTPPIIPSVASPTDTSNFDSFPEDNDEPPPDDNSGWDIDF
Chain of Proto-oncogene tyrosine-protein kinase Src (P12931 2-536 limits assumed): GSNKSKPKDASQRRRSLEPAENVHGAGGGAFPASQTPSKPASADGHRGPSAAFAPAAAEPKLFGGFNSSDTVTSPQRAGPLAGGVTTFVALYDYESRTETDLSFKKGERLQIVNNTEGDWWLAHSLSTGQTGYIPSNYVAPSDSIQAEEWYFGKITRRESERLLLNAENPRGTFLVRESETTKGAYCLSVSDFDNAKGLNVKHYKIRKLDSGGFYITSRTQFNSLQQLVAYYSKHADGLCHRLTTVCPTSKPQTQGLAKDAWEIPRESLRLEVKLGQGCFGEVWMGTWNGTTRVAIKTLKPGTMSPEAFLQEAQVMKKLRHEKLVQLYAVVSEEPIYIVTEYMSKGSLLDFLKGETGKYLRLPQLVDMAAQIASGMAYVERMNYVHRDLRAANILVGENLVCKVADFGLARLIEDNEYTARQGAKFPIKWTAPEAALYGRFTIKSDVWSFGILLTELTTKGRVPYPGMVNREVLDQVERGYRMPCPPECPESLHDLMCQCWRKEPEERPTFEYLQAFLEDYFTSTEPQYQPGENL
Chain of Megakaryocyte-associated tyrosine-protein kinase (P42679 whole entry): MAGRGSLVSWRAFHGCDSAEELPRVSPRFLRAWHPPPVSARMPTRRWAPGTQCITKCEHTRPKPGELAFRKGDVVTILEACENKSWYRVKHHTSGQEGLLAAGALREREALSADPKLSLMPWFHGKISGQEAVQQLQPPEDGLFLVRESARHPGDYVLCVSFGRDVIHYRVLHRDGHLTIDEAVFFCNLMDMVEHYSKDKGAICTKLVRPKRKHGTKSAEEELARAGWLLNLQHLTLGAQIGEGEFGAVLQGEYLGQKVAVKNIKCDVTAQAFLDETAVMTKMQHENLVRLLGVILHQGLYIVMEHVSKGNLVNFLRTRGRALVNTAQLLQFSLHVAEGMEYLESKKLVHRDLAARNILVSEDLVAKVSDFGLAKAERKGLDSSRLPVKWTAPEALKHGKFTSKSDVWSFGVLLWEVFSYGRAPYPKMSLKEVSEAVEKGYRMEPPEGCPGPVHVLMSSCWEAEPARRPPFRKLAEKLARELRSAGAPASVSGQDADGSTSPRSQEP

As to `CCC(C)n1c(NC(=O)c2ccccc2)c(C#N)c2nc3ccccc3nc21` (configuration not stated), in assay [1], the IC50 was > 50000 nM (not active).

In the case of `CCN1/C(=C\c2ccc3ccccc3[n+]2CC)Sc2cc(C)ccc21`, the IC50 in assay [2] was > 80000 nM (inactive); in assay [3], 81300 nM (active); in [4], 37500 nM (inactive); on Exodeoxyribonuclease V, 72800 nM (inactive).

Turning to `CCCCCCCCCCOC(=O)C[n+]1c(COc2ccc(C)cc2)n(C)c2ccccc21`, the EC50 in assay [5] is 6200 nM (active); in the assay with HEK293 it was > 55900 nM (inactive).

As for `CN1CCN(c2nc(C3=C(c4c[nH]c5ccccc45)C(=O)NC3=O)c3ccccc3n2)CC1` [SOTRASTAURIN], the Ki in assay [6] is > 6310 nM (inactive); in assay [7], > 1580 nM (inactive); in [8], > 5010 nM (inactive); in [9], > 2000 nM (inactive); in [10], > 2000 nM (inactive); in assay [11] it was > 2510 nM (inactive). Further, the Ki in assay [12] is 794 nM (active); on Focal adhesion kinase 1, > 6310 nM (inactive); in assay [13] it was 794 nM (active); in assay [14], > 1580 nM (inactive); in assay [15], > 2000 nM (inactive); in assay [16], 2510 nM (active). Besides, the Ki in assay [17] is 316 nM (active); in assay [18], > 1580 nM (inactive); in assay [19], > 1260 nM (inactive); in assay [20], 63.1 nM (active); in [21], 501 nM (active); in assay [22], > 1260 nM (inactive). In addition, the Ki in [23] is 1000 nM (active); in assay [24], > 2000 nM (inactive).
